# Assay results as given in EP2488179B1, “NRF2 INHIBITORS AND USE THEREOF” (priority 2009, dated 2011).
# Experiments:
# Format in all cases: cell-based
# [1] = tested on: U87-MG brain cancer cells; assay: CCK-8 viability assay, alone and combined with Doxorubicin; details: 48 hours
# Method: (§1) H1299 lung cancer cells, SKOV3 ovarian cancer cells, U87-MG brain cancer cells, and HT29 colorectal cancer cells were respectively inoculated into a 96-well plate including a Rosewell Park Memorial Institute medium 1640 (RPMI 1640) supplemented with 10% FBS, 100 µg/ml of streptomycin, and 100 unit/ml of penicillin. Each well was treated with 0.2, 2, 5, and 10 µM 3-[(4-biphenylyloxy)methyl]piperidine hydrochloride, and then treated with 0.15 µM Doxorubicin, an anti-cancer agent after 2 hours therefrom. The wells were cultured under 5% CO2 conditions at 37°C for 48 hours, and the killing effect of the cancer cells was assayed using a CCK-8 viability assay kit (Dojindo, Japan).
# [2] = tested on: HT29 colorectal cancer cells; assay: as above; details: 48 hours
# Method: as §1
# [3] = tested on: SKOV3 ovarian cancer cells; assay: as above; details: 48 hours
# Method: as §1
# [4] = tested on: H1299 lung cancer cells; assay: as above; details: 48 hours
# Method: as §1
# [5] = tested on: SKOV3 ovarian cancer cells; assay: FACS of propidium iodide stained cells after radiation; details: 1 µM with 5 Gy radiation, 48 hours; compared to 5Gy radiation therapy
# Method: (§2) In order to measure whether a treatment of MB231 breast cancer cells and SKOV3 ovarian cancer cells with a combination of 3-[(4-biphenylyloxy)methyl]piperidine chloride, the selected Nrf2 inhibitor, and radiation therapy increase or synergistically increase the killing of cancer cells by apoptosis, the cancer cells were treated with 1 µM 3-[(4-biphenylyloxy)methyl]piperidine hydrochloride, exposed to 5 Gy radiation, and cultured under 5% CO2 conditions at 37°C for 48 hours. The cultured cells were collected and stained with propidium iodide, and cell cycles were analyzed using a fluorescence activated cell sorting (FACS).
# [6] = tested on: MB231 breast cancer cells; assay: as above; details: 1 µM with 5 Gy radiation, 48 hours; compared to 5Gy radiation therapy
# Method: as §2
# [7] = tested on: U87-MG brain cancer cells; assay: Clonogenic assay with radiation (methylene blue staining); details: 1, 5, and 10 µM with 2, 4, and 6 Gy radiation, 7 days
# Method: (§3) H1299 lung cancer cells, U87-MG brain cancer cells, or HT29 colorectal cancer cells were respectively inoculated into a 6 cm plate including a RPMI 1640 supplemented with 10% FBS, 100 µg/ml of streptomycin, and 100 unit/ml of penicillin. The plate was treated with the selected 1, 5, and 10 µM 3-[(4-biphenylyloxy)methyl]piperidine hydrochloride, the Nrf2 inhibitor, exposed to 2, 4, and 6 Gy -radiation, and cultured under 5% CO2 conditions at 37°C for 7 days. The cultured cells were washed with a phosphate buffered saline (PBS) and stained with a 1% methylene blue in 100% methanol. Then, the number of alive cells that formed colonies was calculated three times.
# [8] = tested on: HT29 colorectal cancer cells; assay: as above; details: 1, 5, and 10 µM with 2, 4, and 6 Gy radiation, 7 days
# Method: as §3
# [9] = tested on: H1299 lung cancer cells; assay: as above; details: 1, 5, and 10 µM with 2, 4, and 6 Gy radiation, 7 days
# Method: as §3
# [10] = tested on: HO-1 protein; assay: Western blotting of HO-1 protein; details: FIG. 3b
# Method: (§4) In order to identify whether the 3-[(4-biphenylyloxy)methyl]piperidine hydrochloride, the selected Nrf2 inhibitor, acted on the ARE site to inhibit the binding of the Nrf2 transcription factor, and thereby inhibiting the expression of antioxidant enzymes, protein expression was analyzed. The increase in the amount of HO-1 protein by the tBHQ treatment was assayed after treating cells with the 3-[(4-biphenylyloxy)methyl]piperidine hydrochloride followed by treatment with tBHQ with a 2-hour gap between the treatments. Cytoplasmic fractions were obtained from the cells treated as described above using a method commonly used in the art. The fractions were separated using a 10% gradient SDS-PAGE, and then transferred to a nitrocellulose membrane (BioRad, Hercules, CA, USA). The membrane was blocked with a 5% skim milk and screened with an anti-Nrf2 antibody (Abcam, USA) and a HO-1 antibody (Oncogene Research Products, USA). The result was visualized by a reaction with a horseradish peroxidase-conjugated anti-rat IgG antibody (Santa Cruz Biotechnology, Inc.) using a thermostat and then with an ECL system (GE, USA).
# [11] = tested on: HO-1 mRNA; assay: Semi-quantitative RT-PCR of HO-1 mRNA; details: inhibitor, then tBHQ after 2 hours; GAPDH control; FIG. 3a
# Method: After 2 hours from the treatment of 3-[(4-biphenylyloxy)methyl]piperidine chloride, the selected Nrf2 inhibitor, RNA expression was assayed in order to measure the increase in the amount of heme oxygenase (HO)-1 mRNA by tBHQ treatment. mRNA was isolated from the cells treated with 3-[(4-biphenylyloxy)methyl]piperidine hydrochloride, using an RNA extraction kit (Qiagen, USA) and identified using a spectrometer (Amersham Biosciences, USA). cDNA was obtained from the mRNA using a reverse transcriptase (Promega, USA), and PCR was conducted using the cDNA as a template and primers having sequences SEQ ID NOS: 11 and 12 to measure the expression level of HO-1 mRNA. The PCR was performed with 25 cycles, each of which consisting of a denaturation at 94°C for 30 seconds, an annealing at 55°C for 30 seconds, and an extension at 72°C for 1 minute. The DNA obtained using the PCR was electrophoresed in a 1.5% agarose gel, stained using ethidium bromide, and observed under UV rays. […] It is believed that the 3-[(4-biphenylyloxy)methyl]piperidine hydrochloride that is selected as the Nrf2 inhibitor using the ARE-pGL3 luciferase plasmid in Example 1 acted on the ARE site to inhibit the activity of the Nrf2 transcription factor.
# [12] = tested on: HEK293 cells; assay: CCK-8 viability assay (absorbance at 450 nm) on the screening cells; details: CCK-8, absorbance at 450 nm, FIG. 2b
# Method: In addition, in order to confirm that the inhibition of the luciferase activity is not caused by the death of a cell but by the Nrf2 inhibitor, absorbance was measured using a CCK-8 viability assay kit (Dojindo, Japan) and a spectrometer (Lab Systems, USA) at 450 nm.
# [13] = tested on: Nrf2 protein; assay: Western blotting of Nrf2 protein; details: FIG. 3b
# Method: as §4
# [14] = tested on: Nrf2; assay: ARE-pGL3 luciferase reporter assay for screening Nrf2 inhibitors in transformed HEK293 cells
# Method: Oligomers including an ARE site (SEQ ID NOS: 1 to 10, Bioneer Corp., Ltd., Korea) were synthesized and treated with Kpnl and M1 ul restriction enzymes. The oligomers were inserted into a pGL3 luciferase plasmid (Promega, USA) treated with the Kpnl and M1ul restriction enzymes using a ligase (Promega, USA) to prepare ARE-pGL3 luciferase. […] Besides the plasmid, pcDNA3.1 (Invitrogen, USA) plasmid including a Neo gene was used together as a selection plasmid to select a transformed cell using G418 (neomycin) as a selectable factor.
# HEK293 cells were purchased from the American Type Culture Collection (ATCC) and cultured in a Dulbecco's modified Eagle's medium (DMEM) supplemented with 10% fetal bovine serum (FBS), 100 µg/ml of streptomycin, and 100 units/ml of penicillin under 5% CO2 conditions at 37°C. A transformation by which the ARE-pGL3 luciferase was introduced into the HEK293cell was performed using Lipofectamine 2000™ (Invitrogen, Calsbad, CA, USA). Activity of luciferase was measured using a Luciferase Assay Kit (Promega, Medison, WI, USA). […] Based on the result, ARE-pGL3 luciferase plasmid including 4(1/2)xARE-2 having a sequence of SEQ ID NO: 10 was used as a plasmid for screening an Nrf2 inhibitor.
# After the transformation performed according to Example 1-(2), transformed HEK293 cells that expressed both ARE-pGL3 luciferase and pcDNA3.1 were selected using a culture medium including G418 (600µg/ml) and used as a cell line for screening the Nrf2 inhibitor. 20,000 cells were inoculated into each well of a 96-well plate and cultured for 24 hours under the conditions described above in Example 1-(2). […] Transformed cells that stably expressed the ARE-pGL3 luciferase plasmid were selected, and 8,000 candidate substances, low molecular weight single compounds were used to screen the Nrf2 inhibitor. Each candidate substance was added to each well to a final concentration of 10 µM. The wells were incubated for 18 hours, and the luciferase activity was measured using a Victor 3 Luminometer (Perkin Elmer, USA).
# [15] = 0.2, 2, 5, and 10 µM, then 0.15 µM Doxorubicin after 2 hours, compared to Doxorubicin alone
# [16] = compound alone, 0.2, 2, 5, and 10 µM
# [17] = inhibitor then tBHQ with a 2-hour gap, cytoplasmic fractions, concentration-dependent
structure (smiles),measurement,setting,value
Cl.c1ccc(-c2ccc(OCC3CCCNC3)cc2)cc1 (stereo not shown) [3-[(4-biphenylyloxy)methyl]piperidine hydrochloride],killing effect of a combination with Doxorubicin,[1]; [15],significantly increased in a concentration-dependent manner
same,effect on the viability,[1]; [16],negligible
same,killing effect of a combination with Doxorubicin,[2]; [15],significantly increased in a concentration-dependent manner
same,effect on the viability,[2]; [16],negligible
same,killing effect of a combination with Doxorubicin,[3]; [15],significantly increased in a concentration-dependent manner
same,effect on the viability,[3]; [16],negligible
same,killing effect of a combination with Doxorubicin,[4]; [15],significantly increased in a concentration-dependent manner
same,effect on the viability,[4]; [16],negligible
same,killing effect of the combination with radiation,[5],twice
same,killing effect of the combination with radiation,[6],4.3 times
same,sensitivity of cells to radiation,[7],increased or synergistically increased the sensitivity of cells to radiation
same,sensitivity of cells to radiation,[8],increased or synergistically increased the sensitivity of cells to radiation
same,sensitivity of cells to radiation,[9],increased or synergistically increased the sensitivity of cells to radiation
same,amount of HO-1 protein,[10]; [17],reduced
same,expression of HO-1 mRNA,[11],inhibited in a dose-dependent manner
same,cell toxicity,[12],does not have cell toxicity
same,amount of Nrf2 protein,[13]; [17],reduced
same,activity of the luciferase,"[14]; concentration dependence, FIG. 2a",inhibited the activity of the luciferase in a concentration-dependent manner
same,activity of the luciferase,"[14]; screening, final concentration of 10 µM, incubated for 18 hours",inhibits the activity of the luciferase
"CC(C)(C)c1cc(O)ccc1O [tBHQ, tertiary butylhydroquinone, reference compound]",amount of HO-1 protein,[10]; treatment with tBHQ,increased
same,amount of Nrf2 protein,[13]; treatment with tBHQ,increased
same,activity of the luciferase,"[14]; tBHQ added to the culture, activates the ARE",increased twice
